Reference: patent publication US11730712B2, “Functionalized long-chain hydrocarbon mono- and di-carboxylic acids and derivatives thereof, and their use for the prevention or treatment of disease” (ESPERVITA THERAPEUTICS, INC., priority 2021, dated 2023)
pIC50: −log10 of the molar value.

Columns and labels:
Hep3B cells = experiment: Hep3B cell proliferation; format: cell-based; conditions: with or without regorafenib (1.5 μM)
Excerpt: FIG. 36 show anti-proliferative effect of illustrative compounds of the invention in Hep3B cells.
Each bar represents the mean±the SEM, n=5. *p<0.03, **p<0.002, ***p<0.0002, ****p<0.0001, One-way ANOVA followed by Tukey's multiple comparison.

Hepa1-6 cells [1] = experiment: Hepa1-6 cell proliferation; format: cell-based; conditions: with or without regorafenib (5 μM)
Excerpt: FIG. 37 show anti-proliferative effect of illustrative compounds of the invention in Hepa1-6 cells.

[2] = tested on: Hepa1-6 murine hepatoma cells; experiment: Cell proliferation assay (presto blue, 72 h); format: cell-based, mouse; conditions: for Hepa1-6 cell proliferation compared to control, compound alone: 100 μM; for Hepa1-6 cell proliferation compared to control, compound alone / inhibition of Hepa1-6 cell proliferation in combination with lenvatinib vs each agent alone / inhibition of Hepa 1-6 cell proliferation in combination with regorafenib vs individual effects / inhibition of Hepa1-6 cell proliferation in combination with sorafenib vs each agent alone: 72 h; for pIC50: Mus musculus, Hepa1-6, 72 h, read-out: Hepa1-6 (IC50), anti-proliferation activity; for synergism with lenvatinib (CI), Hepa1-6 cells: all tested concentrations: 1 μM and 0.3 μM to 100 μM and 30 μM; for inhibition of Hepa1-6 cell proliferation in combination with lenvatinib vs each agent alone: compound 100 μM + lenvatinib 30 μM; for inhibition of Hepa 1-6 cell proliferation in combination with regorafenib vs individual effects: compound 100 μM + regorafenib 5 μM; for inhibition of Hepa1-6 cell proliferation in combination with sorafenib vs each agent alone: compound 100 μM + sorafenib 5 μM
Procedure: Cell cultures. Hep3B (ATCC) and Hepa1-6 (ATCC) cells were seeded in 96-well plates at a density of 3000 cells/well with complete media. On day 2, media in each well was aspirated and replaced with 100 μl of fresh complete media and cells were treated with or without Compound I-1, Compound I-32, Compound I1-84, and Compound I-85, in a concentration dependent manner. Then, cells were incubated in an incubator for 72 h. On day 5, 10 μl of presto blue (Invitrogen, cat #A13261) cell viability reagent was added in each 96-well plate and incubated at 37° C. for 1-2 h. After incubation, fluorescence was measured with an excitation/emission wavelength of 560/590 nm.
Proliferation assay. Hep3B (ATCC) and Hepa1-6 (ATCC) cells were seeded in 96-well plates at a density of 3000 cells/well with complete media. On day 2, media in each well was aspirated and replaced with 100 μl of fresh complete media and cells were treated with/without testing compounds in a concentration dependent manner. Then, cells were incubated in an incubator for 72 h. On day 5, 10 μl of presto blue (Invitrogen, cat #A13261) cell viability reagent was added in each 96-well plate and incubated at 37° C. for 1-2 h. After incubation, fluorescence was measured with an excitation/emission wavelength of 560/590 nm. Anti-proliferative combination effects of Compound I-1 or Compound I-32 and regorafenib were determined in Hep3B and Hepa1-6 cells. Drug combination interaction was determined by the Chou-Talalay method (23), which is based on well-known equations for different reaction sequences and mechanisms, and different types of inhibition. These equations provide the theoretical basis for the combination index (CI)-isobologram equation that allows quantitative determination of drug interactions, where CI<1, =1, and >1 indicate synergism, additive effect, and antagonism, respectively. CI is calculated based on in vitro measurements implemented in the Compusyn software (www.combosyn.com), a platform for drug combinations pharmacodynamics with automated simulations. The software calculates CI based on the Fractional Inhibition (Fa), which is the potency expressed by the average effect values for each drug concentrations as determined by in vitro experiments. The dose-effect data entries are utilized for automated computerized analysis by the Compusyn software.
Data entered was obtained by in vitro experiments performed as follows: Hep3B or Hepa 1-6 cells were plated in a 96-well format and cell proliferation rates were determined as described above. Cells were treated with 5 doses of each test agent alone at the following concentrations: compounds of the invention dosed at 1, 5, 10, 50, or 100 μM for both Hep3B and Hepa1-6 cells, regorafenib dosed at 0.015, 0.075, 0.15, 0.75, and 1.5 μM for Hep3B cells or 0.05, 0.25, 0.5, 2.5, 5 μM for Hepa 1-6 cells. […]. Data are shown as Fa-CI plots where CI is the combination index and Fa is fractional inhibition. Results were indicated as mean±standard deviation (SD). All bar diagrams and line graphs were prepared using Graph Pad Prism 8 software. Drug synergy was calculated using the CompuSyn software.
Methods: Hep3B cells (supplied by ATCC) and Hepa1-6 cells (supplied by ATCC) were seeded in 96-well plates at a density of 3000 cells/well with complete media. On day 2, the media in each well was aspirated and replaced with 100 μL of fresh complete media, and the cells were treated in a concentration dependent manner with either Compound I-1, Compound I-32, Compound I-84, Compound I-85, sorafenib, lenvatinib, Compound I-1 in combination with sorafenib. Compound I-1 in combination with lenvatinib, Compound I-32 in combination with sorafenib, or Compound I-32 in combination with lenvatinib. The cells were then incubated in an incubator at 37° C. for 72 h. On day 5, 10 μL of presto blue (Invitrogen, cat #A13261) cell viability reagent was added to each 96-well plate and incubated at 37° C. for 1-2 h. […]

Hepa1-6 cells [3] = experiment: Drug interaction (combination) in Hepa1-6 cell proliferation; format: cell-based
Procedure: FIGS. 42A-42B show drug interaction effect of Compound I-32 (FIG. 42A) and Compound I-1 (FIG. 42B) in combination with regorafenib in Hepa1-6 cell proliferation. In FIG. 42A, “1+0.05 (μM)” means 1 μM Compound I-32+0.05 μM regorafenib, etc. In FIG. 42B, “1+0.05 (μM)” means 1 μM Compound I-1+0.05 μM regorafenib, etc.
In FIG. 46A, “1+0.05 (μM)” means 1 μM Compound I-1+0.05 μM sorafenib, etc. […] In FIG. 46B, “1+0.3 (μM)” means 1 μM Compound I-1+0.3 μM lenvatinib, etc. […] In FIG. 46C, “1+0.05 (μM)” means 1 μM Compound I-32+0.05 μM sorafenib, etc. […] In FIG. 46D, “1+0.3 (μM)” means 1 μM Compound I-32+0.3 μM lenvatinib, etc.

SMILES	effect on proliferation (Hep3B cells)	effect on proliferation (Hepa1-6 cells [1])	Hepa1-6 cell proliferation compared to control, compound alone [2]	pIC50 [2]	synergism with sorafenib (CI), Hepa1-6 cells ([2]; all tested concentrations: 1 μM and 0.05 μM to 100 μM and 5 μM)	synergism with lenvatinib (CI), Hepa1-6 cells [2]	inhibition of Hepa1-6 cell proliferation in combination with lenvatinib vs each agent alone [2]	inhibition of Hepa 1-6 cell proliferation in combination with regorafenib vs individual effects [2]	inhibition of Hepa1-6 cell proliferation in combination with sorafenib vs each agent alone [2]	drug interaction effect in combination with lenvatinib (Hepa1-6 cells [3]; at all tested concentrations)	drug interaction effect in combination with sorafenib (Hepa1-6 cells [3]; at all tested concentrations)	synergism with sorafenib (CI), Hepa1-6 cells ([2]; compound and sorafenib: 1 μM and 0.05 μM, 10 μM and 0.25 μM, 50 μM and 2.5 μM, 100 μM and 5 μM)	drug interaction effect in combination with sorafenib (Hepa1-6 cells [3]; at various concentrations)
CC(C)(CCCCc1ccc(CCCCC(C)(C)C(=O)O)cc1)C(=O)O [Compound I-1, 6-[4-(5-carboxy-5-methylhexyl)-phenyl]-2,2-dimethylhexanoic acid]	anti-proliferation effect	anti-proliferation effect	inhibited Hepa1-6 cell proliferation compared to control	< 4.00	synergism	synergism	significantly greater inhibition of Hepa1-6 cell proliferation	greater inhibition of cell proliferation compared to their individual effects	significantly greater inhibition of Hepa1-6 cell proliferation	synergism	synergism	–	–
CC(C)(CCCCc1cccc(CCCCC(C)(C)C(=O)O)c1)C(=O)O [Compound I-32, 6-[3-(5-carboxy-5-methylhexyl)-phenyl]-2,2-dimethylhexanoic acid]	anti-proliferation effect	anti-proliferation effect	inhibited Hepa1-6 cell proliferation compared to control	< 4.00	–	synergism	significantly greater inhibition of Hepa1-6 cell proliferation	greater inhibition of cell proliferation compared to their individual effects	significantly greater inhibition of Hepa1-6 cell proliferation	synergism	–	significant synergism	synergism
